Experiments:
[1] = target: T1, chimeric protein PPARα-Gal4 (Homo sapiens, UniProt Q07869); test: PPAR activation, Gal4 chimera luciferase reporter in co-transfected CV-1 cells; format: cell-based; settings: 50 μM, 18 hours contact, relative to control cells without product
T1 construct: Gal4 (fusion partner); expressed in transfected cells; host or cells: CV-1 cells (monkey kidney cells)
T1 sequence (Q07869 239-466 limits assumed): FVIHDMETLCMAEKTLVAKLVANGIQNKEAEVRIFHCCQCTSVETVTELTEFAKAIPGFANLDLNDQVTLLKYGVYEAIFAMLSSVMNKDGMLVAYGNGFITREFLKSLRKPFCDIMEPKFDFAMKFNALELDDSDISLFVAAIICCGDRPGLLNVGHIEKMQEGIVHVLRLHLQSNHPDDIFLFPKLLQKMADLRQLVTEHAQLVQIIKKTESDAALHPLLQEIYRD
Experimental: (§1) The measurement of the PPAR activation was performed according to a technique described by Lehmann et al. (1995, J. Biol. Chem. 270: 12953-12956).
(§2) CV-1 cells (monkey kidney cells) are co-transfected with an expression vector for the chimeric proteins PPARα-Gal4 or PPARγ-Gal4 and with a “reporter” plasmid that allows the expression of the luciferase gene placed under the control of a promoter containing Gal4 response elements.
(§3) The cells are plated into 96-well microplates and co-transfected using a commercial reagent with the reporter plasmid (pG5-tk-pGL3) and the expression vector for the chimeric protein (PPARα-Gal4 or PPARγ-Gal4). After incubating for 4 hours, whole culture medium (comprising 10% foetal calf serum) is added to the wells. After 24 hours, the medium is removed and replaced with whole medium comprising the test products (50 μM final). The products are left in contact with the cells for 18 hours. The cells are then lysed and the luciferase activity is measured using a luminometer. A PPAR activation factor can then be calculated by means of the activation of the expression of the reporter gene induced by the product (relative to the control cells that have not received any product).

[2] = target: T2, chimeric protein PPARγ-Gal4 (Homo sapiens, UniProt P37231); test: as above; format: cell-based; settings: 50 μM, 18 hours contact, relative to control cells without product
T2 construct: Gal4 (fusion partner); expressed in transfected cells; host or cells: CV-1 cells (monkey kidney cells)
T2 sequence (P37231 238-503 limits assumed): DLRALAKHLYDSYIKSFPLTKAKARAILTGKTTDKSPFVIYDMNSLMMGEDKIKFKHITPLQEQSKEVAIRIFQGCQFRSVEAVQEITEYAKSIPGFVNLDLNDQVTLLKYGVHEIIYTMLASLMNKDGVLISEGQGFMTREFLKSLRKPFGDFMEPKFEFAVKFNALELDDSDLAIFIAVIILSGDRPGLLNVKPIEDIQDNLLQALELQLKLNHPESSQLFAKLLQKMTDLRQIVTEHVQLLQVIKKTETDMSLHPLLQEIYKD
Experimental: as §1, §2, §3

[3] = test system: vector expressing Gal4 alone; test: Luciferase reporter control without the PPAR ligand binding domain in CV-1 cells; format: cell-based
Experimental: as §2
as §3, with “The products are left in contact with the cells for 18 hours.” left out
By way of example, the compound of Example 1, at a concentration of 50 μM, activates the chimeric protein PPARα-Gal4 by factor of 18, and the chimeric protein PPARγ-Gal4 by a factor of 39. In the absence of the binding domain for the PPAR α or γ ligand (vector expressing Gal4 alone), the luciferase activity measured in the presence of this product is zero.

Structure (SMILES) | PPAR activation factor (activation of the chimeric protein PPARα-Gal4) [1] | PPAR activation factor (activation of the chimeric protein PPARγ-Gal4) [2] | luciferase activity in the absence of the binding domain for the PPAR α or γ ligand [3] | melting point
CCCCCCc1cc2c(cc1OCCCC(=O)O)C(=O)CC2 [Example 1, 4-(6-hexyl-3-oxoindan-5-yloxy)butyric acid] | 18 | 39 | zero | –
CCCCCCc1cc2c(cc1OCCCC(=O)O)C(=NO)CC2 [Example 24, 4-(6-hexyl-3-(hydroxyimino)-5-indanyloxy]butyric acid] | – | – | – | 148 °C
CCCCCCc1cc2c(cc1NCC(=O)O)C(=O)CC2 [Example 36, (6-Hexyl-3-oxoindan-5-ylamino)acetic acid] | – | – | – | 110 °C
CCCCCCc1cc2c(cc1NCC(=O)O)C(=O)CC2 [Example 38, (6-Hexyl-3-oxoindan-5-ylamino)acetic acid] | – | – | – | 144 °C
CCCCCCc1cc2c(cc1SCCCC(=O)O)C(=O)CC2 [Example 42, 4-(6-hexyl-3-oxoindan-5-ylsulfanyl)butyric acid] | – | – | – | 100 °C

From patent US20060111445A1, “Novel carboxylic acids and derivatives for the treatment of and preventing diabetes and dyslipidaemia” (priority 2003, published 2006)
